Measurements taken from patent US7534780B2, “Estradiol prodrugs” (Bayer Schering Pharma Aktiengesellschaft, priority 2004, dated 2009).

Tests used:
erythrocytes [1] = assay: Determination of the erythrocyte/plasma ratio of the substance; format: in vitro ADME; details: fresh blood; tracer use for compound 1 or 9, otherwise non-radioactive
Method: Determination of the substance concentration in the erythrocyte/plasma ratio (tracer use):
Fresh blood is incubated with a defined amount of tracer compound of compound 1 or 9. After the erythrocytes are separated, the measured radioactivity in the erythrocytes is put into a ratio with the measured radioactivity in the plasma.
Determination of the erythrocyte/plasma ratio (non-radioactive):
Freshly-obtained, heparinized blood is mixed with a defined amount of test substance. The concentration in the plasma obtained therefrom is measured. The erythrocyte/plasma ratio is calculated from the measured concentration of the total substance in the plasma and the concentration that is used.

erythrocytes [2] = assay: Displacement of estradiol-3-sulfamate from the erythrocyte bond (relative binding affinity); set-up: species or system human; details: for RBA to Erythrocytes: human blood, displacement of 14C-labeled estradiol sulfamate; for bond to erythrocytes (in words): m-substituted versus p-substituted compounds
Method: The SO2—NTH2 group of the substances according to the invention can result in a concentration in erythrocytes by binding to carboanhydrases. The displacement of estradiol-3-sulfamate from the erythrocyte bond by test substances is measured.
Test preparation: Human blood is mixed with a mixture that consists of ^14C-labeled and unlabeled estradiol sulfamate. The erythrocytes are saturated at the selected working point, and the distribution in plasma/erythrocytes is 40:60. A second blood sample is mixed with a mixture that consists of ^14C-labeled estradiol sulfamate and unlabeled test substance. The relative binding affinity is calculated from the proportion of ^14C-labeled estradiol sulfamate in plasma: higher proportion=strong displacement of ^14C-estradiol sulfamate from the erythrocytes by the test substance=high binding affinity of the test substances to the erythrocytes.

Human Carboanhydrase I = Human Carboanhydrase I (Homo sapiens, UniProt P00915); assay: Inhibition of carboanhydrase I (CO2 hydration); format: biochemical; details: read-out: CAI IC50
Method: Test preparation: A constant CO2 stream is directed by a buffer that was mixed with carboanhydrase I. The time that is required to reduce the pH within defined limits is a measuring parameter. This parameter reflects the formation of H2CO3 in the medium. IC50 inhibiting values are determined by test substances being pipetted into the test preparation.

ovariectomized rats = assay: Induction of uterus growth in ovariectomized rats, oral treatment days 1-3; format: in vivo, rat; details: oral administration
Method: (§1) Adult Wistar rats were ovariectomized 14 days after this operation for the study of the substances according to the invention. A treatment extended over 3 days (days 1-3); on day 4 after the animals were sacrificed, the recovery of plasma for hormone-analytical and clinical-chemical determinations and the determination of uterus weights were carried out. In satellite tests, correspondingly conditioned animals were sacrificed and samples were taken of their blood after one-time treatment and at other times (see Table 1 for determining estradiol and estrone in the plasma).
In FIG. 1, the induction of uterus growth in ovariectomized rats is depicted. The treatment is carried out orally from day 1 to the 3rd day, and then the autopsy is carried out on the 4th day. A maximum uterus growth predominantly at 30 μg/animal/day is shown.

[3] = Estradiol (E2) and estrone (E1) levels in plasma of rats after one-time oral administration; format: in vivo, rat
Method: as §1

angiotensinogen = assay: Liver estrogeneity (marker angiotensinogen) in ovariectomized rats; format: in vivo, rat; details: oral administration
Method: as §1

Human Carboanhydrase I, sequence (P00915 whole entry): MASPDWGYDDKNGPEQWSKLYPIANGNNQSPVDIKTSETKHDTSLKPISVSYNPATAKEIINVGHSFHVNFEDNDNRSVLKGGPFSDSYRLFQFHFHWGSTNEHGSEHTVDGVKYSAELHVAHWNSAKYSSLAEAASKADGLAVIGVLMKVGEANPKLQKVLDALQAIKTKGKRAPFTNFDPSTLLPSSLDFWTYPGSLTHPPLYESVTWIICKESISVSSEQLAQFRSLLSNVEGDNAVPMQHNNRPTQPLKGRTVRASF

Compound	Distribution Ratio of the Substance to Erythrocytes/Plasma (erythrocytes [1])	RBA to Erythrocytes (erythrocytes [2])	IC50 (Human Carboanhydrase I)	estrogenic activity in the uterus / uterus growth (in words) (ovariectomized rats)	bond to erythrocytes (in words) (erythrocytes [2])	oral availability and estrogeneity compared with the p-substituted compound (in words) [3]	increase of mother estrogen (estradiol) on oral administration (in words) ([3]; rats)	hepatic estrogenic action, marker angiotensinogen (in words) (angiotensinogen)
C[C@]12CC[C@@H]3c4ccc(OS(N)(=O)=O)cc4CC[C@H]3[C@@H]1CC[C@@H]2O [Estradiol-3-sulfamate, reference compound]	49	100	0.157 ± 0.0106 µM					
C[C@]12CC[C@@H]3c4ccc(O)cc4CC[C@H]3[C@@H]1CC[C@@H]2OC(=O)c1cccc(S(N)(=O)=O)c1 [Compound 9, 3-Hydroxyestra-1,3,5(10)-trien-17β-yl 3′-sulfamoylbenzoate]	4	0.18	0.38 µM	enhanced in comparison to estradiol	weaker bonds	higher oral availability and estrogeneity	very strong increase	
C[C@]12CC[C@@H]3c4ccc(O)cc4CC[C@H]3[C@@H]1CC[C@@H]2OC(=O)c1ccc(S(N)(=O)=O)cc1 [Compound 1, 3-Hydroxyestra-1,3,5(10)-trien-17β-yl 4′-sulfamoylbenzoate]	7.7	32	0.19 µM	superior action on the uterus growth	very strong bond			much lesser action on estrogen-modulated liver functions
C#C[C@]1(O)CC[C@H]2[C@@H]3CCc4cc(O)ccc4[C@H]3CC[C@@]21C [ethinyl estradiol, 17α-ethinyl estradiol, reference compound]								significant increase in angiotensinogen
C[C@]12CC[C@@H]3c4ccc(O)cc4CC[C@H]3[C@@H]1CC[C@@H]2OC(=O)c1cc(S(N)(=O)=O)c(Cl)cc1Cl [Compound 7, 3-Hydroxyestra-1,3,5(10)-trien-17β-yl 2′,4′-dichloro-5′-sulfamoylbenzoate]	5	0.40	0.5 µM		weaker bonds			
